The target in test [1] is T1, Csx1 (Saccharolobus solfataricus, UniProt Q97YD5).
T1 construct: recombinant from plasmid expression construct; homodimer
T1 sequence (Q97YD5 1-377): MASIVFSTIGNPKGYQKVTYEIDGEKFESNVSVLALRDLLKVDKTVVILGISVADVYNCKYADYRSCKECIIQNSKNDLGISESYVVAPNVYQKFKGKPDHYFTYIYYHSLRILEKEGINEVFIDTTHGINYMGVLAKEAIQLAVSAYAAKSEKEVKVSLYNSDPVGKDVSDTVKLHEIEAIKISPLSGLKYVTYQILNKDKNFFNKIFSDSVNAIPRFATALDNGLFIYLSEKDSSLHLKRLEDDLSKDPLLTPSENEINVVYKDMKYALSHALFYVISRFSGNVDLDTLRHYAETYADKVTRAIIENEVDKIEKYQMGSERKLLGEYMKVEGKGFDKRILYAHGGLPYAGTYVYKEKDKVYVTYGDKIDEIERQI
The test is described as follows: native gel electrophoretic mobility shift, quadratic fit. Format: binding. Background: A gel shift assay detects complexes by their altered migration in electrophoresis.

Test [2] has as its target T2, Crn1 (Sso2081) (Saccharolobus solfataricus, UniProt Q7LYJ6).
T2 construct: recombinant from plasmid expression construct; homodimer
T2 sequence (Q7LYJ6 1-178): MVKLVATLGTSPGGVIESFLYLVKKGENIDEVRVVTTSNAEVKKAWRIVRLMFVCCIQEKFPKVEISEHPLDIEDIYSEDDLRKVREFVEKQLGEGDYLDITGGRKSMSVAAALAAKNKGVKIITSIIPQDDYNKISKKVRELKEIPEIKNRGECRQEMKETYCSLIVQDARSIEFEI
The test is described as follows: native gel electrophoretic mobility shift. In kind it is binding. As to conditions: read-out: apparent KD.

With `Nc1ncnc2c1ncn2[C@@H]1O[C@@H]2COP(=O)(O)O[C@H]3[C@@H](O)[C@H](n4cnc5c(N)ncnc54)O[C@@H]3COP(=O)(O)O[C@H]3[C@@H](O)[C@H](n4cnc5c(N)ncnc54)O[C@@H]3COP(=O)(O)O[C@H]3[C@@H](O)[C@H](n4cnc5c(N)ncnc54)O[C@@H]3COP(=O)(O)O[C@H]2[C@H]1O` [cA4, cyclic tetra-adenylate], the Kd in test [1] is 130 ± 20 nM; in test [2], ~50 nM.

The record behind these values is article PMC7213978, “The dynamic interplay of host and viral enzymes in type III CRISPR-mediated cyclic nucleotide signalling” (eLife, 2020).
